Assay results published in patent US6461845B1, “Recombinant hepatitis C virus RNA replicase” (Emory University, priority 1995, dated 2002).

Tests used:
poly(A) template = assay: poly(U) synthesis assay using a poly(A) template; format: biochemical; settings: described reaction conditions
Protocol: (§1) Assay conditions for r-HCV-RDRP activity: The preferred conditions for assaying RDRP activity are described. The alternative conditions are operative, and designated as alternatives, in parentheses. Incubations were carried out 20 or 50 μl in final volumes that contain: 20-50 mM HEPES-pH 8.0 (alternative is 20 mM Tris-HCl;pH 7.5); 1.5-5 mM MnCl2; 100 mM ammonium acetate; 1-4 mM dithiothreitol (DDT), 500 μM each ATP, CTP, and GTP (alternative: 500 μM GTP and 250 μM each ATP and CTP); 10 μM UTP; 1-20 μCi of [α-^33P]UTP (alternative is to use [α-^32P]UTP or [^3H]UTP), 10-20 U of RNasin; and rHCV-RDRP protein. […]
(§2) Labeled nucleotides incorporated into RNA are precipitated by TCA. The precipitates are collected, washed and counted, e.g. in a scintillation counter to measure the quantity of RNA synthesized in the enzyme reaction. […] [^3H]poly(U) was quantitated by liquid scintillation spectrometry (LKB 1218 RackBeta). The synthesized RNA can also be analyzed by gel electrophoresis to determine the size of the synthesized RNA chains. For gel analysis the reaction mixture is inactivated with 100 μl of proteinase K buffer; digested with proteinase K, processed and the RNA products are analyzed by formaldehyde/agarose gel electrophoresis or 6% denaturing polyacrylamide-7 M urea gel electrophoresis.

globin mRNA template = assay: RNA synthesis assay using a globin mRNA template; format: biochemical; settings: described reaction conditions
Protocol: as §1, §2

[1] = RNA synthesis by r-HCV-RDRP in vitro, Mg++ dependence; format: biochemical
Protocol: Both reactions were >90% primer-dependent under the described reaction conditions.
Assay conditions for r-HCV-RDRP activity: The preferred conditions for assaying RDRP activity are described. The alternative conditions are operative, and designated as alternatives, in parentheses. Incubations were carried out 20 or 50 μl in final volumes that contain: 20-50 mM HEPES-pH 8.0 (alternative is 20 mM Tris-HCl;pH 7.5); 1.5-5 mM MnCl2; 100 mM ammonium acetate; 1-4 mM dithiothreitol (DDT), 500 μM each ATP, CTP, and GTP (alternative: 500 μM GTP and 250 μM each ATP and CTP); 10 μM UTP; 1-20 μCi of [α-^33P]UTP (alternative is to use [α-^32P]UTP or [^3H]UTP), 10-20 U of RNasin; and rHCV-RDRP protein. Templates: 500-1000 ng of a preferred heteropolymeric template (e.g., either a 98 nt 3′-end of HCV genomic RNA or HCV RNA that included both the 5′ and 3′ ends of genomic or negative stranded HCV RNA) per 50 μl incubation; (as an alternative template, poly(A)/oligo(U) on either 20 μg/ml poly(A)460-600, and 10 μg/ml oligo (U)5-25 (or 0.8 μg of 10:1 mix of poly(A)/oligo(U) per 50 μl incubation can be employed). If the enzyme preparation is not >90-95 % pure include 50 μg/ml of actinomycin D. Incubations are for 15-120 min at 30° C. (or 22° C.). Note: stop incubations by adding 100 mM EDTA and then process for trichloroacetic acid (TCA) precipitation.

[2] = isoelectric point of the enzyme; format: physicochemical

r-HCV-RDRP: Modified recombinant HCV RNA-dependent RNA polymerase (NS5B, type 1a) with N-terminal Met-Ala dipeptide, expressed in E. coli
primer dependence of poly(U) synthesis (poly(A) template): > 90%
primer dependence of RNA synthesis (globin mRNA template): > 90%
Mg++ concentration giving maximal activity [1]: about 20 mM
activity in the absence of Mg++ ([1]; no Mg++): no detectable activity
isoelectric point [2]: approximately 8.8
